Experimental data from US20040110821A1, “GAL3 receptor antagonists for the treatment of affective disorders” (priority 2002, published 2004).

What was measured:
[1] = biological target: T1, human GAL2 receptor (Homo sapiens, UniProt O43603); assay: Radioligand binding at cloned human GAL2 receptor; conditions: pyrimidines, Tables 1-3, read-out: Ki (nM) GalR2
T1 construct: expressed in transfected cells
T1 sequence (O43603 1-387): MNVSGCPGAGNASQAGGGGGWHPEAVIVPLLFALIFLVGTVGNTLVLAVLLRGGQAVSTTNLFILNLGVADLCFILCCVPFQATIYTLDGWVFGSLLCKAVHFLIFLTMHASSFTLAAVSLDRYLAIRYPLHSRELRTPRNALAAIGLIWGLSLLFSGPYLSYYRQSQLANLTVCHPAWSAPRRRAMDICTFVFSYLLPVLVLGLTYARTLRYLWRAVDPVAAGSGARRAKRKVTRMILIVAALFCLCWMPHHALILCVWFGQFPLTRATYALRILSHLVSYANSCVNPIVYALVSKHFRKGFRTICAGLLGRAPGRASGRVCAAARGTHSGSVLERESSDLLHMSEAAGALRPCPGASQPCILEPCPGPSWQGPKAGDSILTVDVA
Experimental: (§1) The present invention provides for a method of determining the binding affinity of a GAL3 antagonist, wherein the GAL3 antagonist is dissolved in a “suitable solvent”. A “suitable solvent” means one which permits the measurement of binding affinity of the GAL3 antagonist to the human GAL3 receptor at concentrations less than 1 μM, preferably less than 100 nM. Examples of solvents include, but are not limited to, DMSO, ethanol, N,N-dimethylacetamide, or water. For indolones, the preferred solvent is 3% DMSO (final concentration in the assay). For pyrimidines, the preferred solvent is 1% ethanol/0.09% polypuronic acid F-127 (final concentration in the assay). For any other type of compounds, the preferred solvent is the solvent which permits the measurement of binding affinity of a GAL3 antagonist at the lowest concentration. Once a suitable solvent is ascertained for the binding assay of the human GAL3 receptor, the same solvent is used in assays to determine the binding affinity for instance, at the GAL1 receptor.
(§2) The binding properties of the pyrimidines of the present invention were evaluated at the cloned human galanin receptors, GAL1, GAL2, and GAL3, using protocols described herein.
(§3) The binding properties of the indolones of the present invention were evaluated at the cloned human galanin receptors, GAL1, GAL2, and GAL3, using protocols described herein.
(§4) LM(tk-) cells were stably transfected with the human GAL1 or GAL3 receptor. CHO cells were stably transfected with the human GAL2 receptor.
(§5) cDNAs for the human and rat GAL1, and human and rat GAL3 receptors were transfected with a G-418 resistant gene into the mouse fibroblast LM(tk-) cell line by a calcium phosphate transfection method (Cullen, 1967). Stably transfected cells were selected with G-418. Human and rat GAL2 receptors were similarly transfected into CHO cells.
(§6) Membranes were harvested from stably transfected LM(tk-) cells. Adherent cells were washed twice in ice-cold phosphate buffered saline (138 mM NaCl, 8.1 mM Na2HPO4, 2.5 mM KCl, 1.2 mM KH2PO4, 0.9 mM CaCl2, 0.5 mM MgCl2, pH 7.4) and lysed by sonication in ice-cold sonication buffer (20 mM Tris-HCl, 5 mM EDTA, pH 7.7). Large particles and debris were cleared by low speed centrifugation (200×g, 5 min, 4° C.). Membranes were collected from the supernatant fraction by centrifugation (32,000×g, 18 min, 4° C.), washed with ice-cold hypotonic buffer, and collected again by centrifugation (32,000×g, 18 min, 4° C.). The final membrane pellet was resuspended by sonication into a small volume of ice-cold binding buffer (−1 ml for every 5 plates: 10 mM NaCl, 20 mM HEPES, 0.22 mM KH2PO4, 1.26 mM CaCl2, 0.81 mM MgSO4, pH 7.4). Protein concentration was measured by the Bradford method (Bradford, 1976) using Bio-Rad Reagent, with bovine serum albumin as a standard. Membranes were held on ice for up to one hour and used fresh, or flash frozen and stored in liquid nitrogen. Membranes were prepared similarly from CHO cells.
(§7) Galanin Receptors: Binding assays were performed according to the following published methods: human GAL3 (PCT International Publication No. WO 98/15570), human GAL1 (PCT International Publication No. WO 95/2260) human GAL2 (PCT International Publication No. WO 97/26853).
(§8) Binding data were analyzed using nonlinear regression and statistical techniques available in the GraphPAD Prism package (San Diego, Calif.). Enzymatic assay data were derived from a standard curve of reference compound data.

[2] = biological target: T2, human GAL1 receptor (Homo sapiens, UniProt P47211); assay: Radioligand binding at cloned human GAL1 receptor; conditions: pyrimidines, Tables 1-3, read-out: Ki (nM) GalR1
T2 construct: expressed in transfected cells
T2 sequence (P47211 1-349): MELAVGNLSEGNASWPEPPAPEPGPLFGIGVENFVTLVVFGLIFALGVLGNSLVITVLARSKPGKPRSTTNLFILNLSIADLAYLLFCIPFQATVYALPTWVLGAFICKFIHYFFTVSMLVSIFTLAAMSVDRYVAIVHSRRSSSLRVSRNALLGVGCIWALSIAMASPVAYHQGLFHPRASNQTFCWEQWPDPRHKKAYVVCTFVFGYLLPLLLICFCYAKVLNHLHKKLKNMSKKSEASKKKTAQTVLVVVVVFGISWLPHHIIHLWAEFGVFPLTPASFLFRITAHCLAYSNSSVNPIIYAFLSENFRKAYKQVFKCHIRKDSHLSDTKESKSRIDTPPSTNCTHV
Experimental: as §1, §2, §3, §4, §5, §6, §7, §8

[3] = biological target: T3, human GAL3 receptor (Homo sapiens, UniProt O60755); assay: Radioligand binding at cloned human GAL3 receptor; conditions: cloned human GAL3 receptor; indolones, Table 4a; read-out: Ki (nM) Gal3
T3 construct: expressed in transfected cells
T3 sequence (O60755 1-368): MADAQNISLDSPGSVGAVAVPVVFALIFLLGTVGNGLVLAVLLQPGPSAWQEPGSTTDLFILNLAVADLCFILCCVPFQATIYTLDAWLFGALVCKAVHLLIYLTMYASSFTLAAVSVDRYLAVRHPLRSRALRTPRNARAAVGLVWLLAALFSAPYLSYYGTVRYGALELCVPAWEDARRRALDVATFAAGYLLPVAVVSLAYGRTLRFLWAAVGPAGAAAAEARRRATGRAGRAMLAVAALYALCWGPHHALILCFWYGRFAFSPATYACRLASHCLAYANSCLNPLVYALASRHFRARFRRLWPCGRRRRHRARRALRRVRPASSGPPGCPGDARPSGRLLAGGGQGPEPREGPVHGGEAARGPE
Experimental: as §1, §2, §3, §4, §5, §6, §7, §8

| Ki [1] | Ki [2] | Ki [3] | SMILES |
| --- | --- | --- | --- |
| > 5000 nM | > 5000 nM |  | Cc1cccc(Nc2cc(N(C)C)nc(Nc3ccccc3)n2)c1 [Example 52] |
| > 5000 nM | > 5000 nM |  | Cc1ccc(Nc2cc(N3CCCCC3)nc(Nc3ccc(C)cc3)n2)cc1 [Example 4] |
|  | > 5000 nM |  | CN(CCc1c[nH]c2ccccc12)c1nc(Nc2cccc(F)c2)cc(N2CCCCC2)n1 [Example 14] |
|  | > 5000 nM |  | Cc1ccc(Nc2cc(N3CCCCC3)nc(NCCc3c[nH]c4ccccc34)n2)cc1 [Example 10] |
| > 5000 nM | > 5000 nM |  | Cc1ccc(Nc2cc(N(C)C)nc(N3CCN(S(=O)(=O)c4ccc(C)cc4)CC3)n2)cc1 [Example 84] |
|  | > 5000 nM |  | COCCN(CCc1c[nH]c2ccccc12)c1nc(Nc2ccc(C)cc2)cc(N2CCCCC2)n1 [Example 19] |
| > 5000 nM | > 5000 nM |  | Cc1ccc(Nc2cc(N3CCCCC3)nc(N3CCN(c4cccc(C(F)(F)F)n4)CC3)n2)cc1 [Example 33] |
|  | > 5000 nM |  | Cc1ccc(Nc2cc(N(C)C)nc(N3CCC(O)(c4ccccc4)CC3)n2)cc1 [Example 80] |
| > 5000 nM | > 5000 nM |  | COCCN(CCOC)c1nc(Nc2ccc(C)cc2)cc(N2CCCCC2)n1 [Example 45] |
| > 5000 nM | > 5000 nM |  | CN(C)c1cc(Nc2ccc(Oc3ccccc3)cc2)nc(Nc2ccccc2)n1 [Example 64] |
| > 5000 nM | > 5000 nM |  | Cc1ccc(Nc2cc(N(C)C)nc(Nc3ccc(C)cc3)n2)cc1 [Example 56] |
| > 5000 nM | > 5000 nM |  | CN(C)c1cc(Nc2ccccc2)nc(Nc2ccccc2)n1 [Example 50] |
|  | > 5000 nM |  | Cc1ccc(Nc2cc(N(C)C)nc(N(C)c3ccc(C)cc3)n2)cc1 [Example 72] |
|  |  | 138 nM | CN1C(=O)c2ccc(/N=C3\C(=O)N(c4ccccc4)c4ccccc43)cc2C1=O [Example 110, 2-METHYL-5-[(2-OXO-1-PHENYL-1,2-DIHYDRO-3H-INDOL-3-YLIDENE)AMINO]-2H—ISOINDOLE-1,3(2H)-DIONE] |
| > 5000 nM | > 5000 nM |  | Cc1ccc(Nc2cc(N3CCCCC3)nc(N3CCN(Cc4ccccc4)CC3)n2)cc1 [Example 23] |
| > 5000 nM | > 5000 nM |  | Cc1ccc(Nc2cc(N(C)C)nc(N3CCN(c4cccc(C)c4)CC3)n2)cc1 [Example 86] |
|  | > 5000 nM |  | Cc1ccc(Nc2cc(N3CCCCC3)nc(N3CCCc4ccccc43)n2)cc1 [Example 40] |
|  | > 5000 nM |  | Cc1ccc(Nc2cc(N(C)C)nc(N(C)C3CCCCC3)n2)cc1 [Example 73] |
|  | > 5000 nM |  | Cc1ccc(Nc2cc(N3CCCCC3)nc(N3CCN(c4ncccn4)CC3)n2)cc1 [Example 37] |
|  | > 5000 nM |  | Cc1ccc(Nc2cc(N3CCCCC3)nc(N3CCN(c4ccccn4)CC3)n2)cc1 [Example 30] |
|  | > 5000 nM |  | Cc1ccc(Nc2cc(N(C)C)nc(N3CCN(c4ccccc4C)CC3)n2)cc1 [Example 85] |
| > 5000 nM | > 5000 nM |  | Cc1ccc(Nc2cc(N3CCCCC3)nc(N3CCc4ccccc43)n2)cc1 [Example 39] |
|  | > 5000 nM |  | Cc1ccc(Nc2cc(N3CCCCC3)nc(N(C)c3ccccc3)n2)cc1 [Example 6] |

| Ki [1] | Ki [2] | Ki [3] | SMILES |
| --- | --- | --- | --- |
|  | > 5000 nM |  | Cc1ccc(Nc2cc(N3CCCCC3)nc(N(C)CCc3c[nH]c4ccccc34)n2)cc1 [Example 11] |
|  | > 5000 nM |  | Cc1ccc(Nc2cc(N3CCCCC3)nc(N3CCN(c4ncccc4C)CC3)n2)cc1 [Example 31] |
| > 5000 nM | > 5000 nM |  | CN(C)c1cc(Nc2ccc3ccccc3c2)nc(Nc2ccccc2)n1 [Example 65] |
| > 5000 nM | > 5000 nM |  | Cc1ccc(Nc2cc(N(C)C)nc(Nc3ccc(Cl)c(Cl)c3)n2)cc1 [Example 55] |
|  | > 5000 nM |  | COc1ccc2[nH]cc(CCNc3nc(Nc4ccc(C)cc4)cc(N4CCCCC4)n3)c2c1 [Example 9] |
| > 5000 nM | > 5000 nM |  | CN(C)c1cc(Nc2ccc(C(C)(C)C)cc2)nc(Nc2ccccc2)n1 [Example 63] |
|  | > 5000 nM |  | Cc1ccc(Nc2cc(N3CCCCC3)nc(N3CCC(c4ccccc4)CC3)n2)cc1 [Example 24] |
| > 5000 nM | > 5000 nM |  | CN(C)c1cc(NC2CCCCC2)nc(Nc2ccccc2)n1 [Example 66] |
| > 5000 nM | > 5000 nM |  | Cc1ccc(Nc2cc(N3CCCCC3)nc(N3Cc4cccc5cccc(c45)C3)n2)cc1 [Example 43] |
| > 5000 nM | > 5000 nM |  | Cc1ccc(Nc2nc(Nc3cccc(C)c3)cc(N(C)C)n2)cc1 [Example 53] |
| > 5000 nM | > 5000 nM |  | CN(C)c1cc(Nc2cccc(F)c2)nc(Nc2ccccc2)n1 [Example 57] |
| > 5000 nM | > 5000 nM |  | Cc1ccc(Nc2cc(N3CCCCC3)nc(N(C)CCc3c[nH]c4ccccc34)n2)cc1Cl [Example 16] |
|  | > 5000 nM |  | Cc1ccc(Nc2cc(N3CCCCC3)nc(NCCc3c[nH]c4ccc(C)cc34)n2)cc1 [Example 8] |
| > 5000 nM | > 5000 nM |  | CN(C)c1cc(Nc2ccc(Br)cc2)nc(Nc2ccccc2)n1 [Example 59] |
| > 5000 nM | > 5000 nM |  | Cc1ccc(Nc2cc(N3CCCCC3)nc(Nc3ccccc3)n2)cc1 [Example 3] |
|  | > 5000 nM |  | COc1cc2c(cc1OC)CN(c1nc(Nc3ccc(C)cc3)cc(N3CCCCC3)n1)CC2 [Example 42] |
|  | > 5000 nM |  | Cc1ccc(Nc2cc(N3CCCCC3)nc(N3CCC(O)(c4ccccc4)CC3)n2)cc1 [Example 44] |
|  | > 5000 nM |  | Cc1ccc(Nc2cc(N3CCCCC3)nc(N3CCN(c4cc(C(F)(F)F)ccn4)CC3)n2)cc1 [Example 32] |
|  | > 5000 nM |  | Cc1ccc(Nc2cc(N(C)C)nc(N3CCC(c4ccccc4)CC3)n2)cc1 [Example 81] |
|  | > 5000 nM |  | Cc1ccc(Nc2cc(N(C)C)nc(N3CCN(c4ccc(C)cc4)CC3)n2)cc1 [Example 87] |
| > 5000 nM | > 5000 nM |  | Cc1ccc(Nc2cc(N(C)C)nc(Nc3ccccc3)n2)cc1 [Example 54] |
|  | > 5000 nM |  | CCc1ccccc1N1CCN(c2nc(Nc3ccc(C)cc3)cc(N3CCCCC3)n2)CC1 [Example 26] |
|  | > 5000 nM |  | COc1cccc(Nc2cc(N3CCCCC3)nc(N(C)CCc3c[nH]c4ccccc34)n2)c1 [Example 17] |
